From patent publication US12371748B2, “Genetic markers for predicting responsiveness to therapy with HDL-raising or HDL mimicking agent” (Hoffmann-La Roche Inc., priority 2014, dated 2025)

Tested on: patients with evidence of coronary artery disease
Assay: dal-PLAQUE-2: change in carotid intima-media thickness (B-mode ultrasound) by ADCY9 genotype
Assay type: in vivo, human
Source text: The dal-PLAQUE-2 study (Tardif J C et al, Circulation Cardiovascular imaging 2011; 4:319-33) was a phase 3b multicenter, double-blind, randomized, placebo-controlled, parallel group trial designed to evaluate the effect of dalcetrapib on atherosclerotic disease progression in patients with evidence of coronary artery disease and carotid intima media thickness of at least 0.65 mm in the far wall of the common carotid arteries, as assessed by B-mode ultrasonography. A total of 931 patients were randomized to receive dalcetrapib 600 mg daily or matching placebo with intended treatment duration of 24 months. However, the trial was terminated prematurely concurrent with the termination of dal OUTCOMES (the latter due to futility). Patients continued study medication until they returned for follow-up carotid imaging at 12 months. Carotid B-mode ultrasound recordings at baseline, month 6, and month 12 were analyzed centrally at the core laboratory of the Montreal Heart Institute. Intima-media thickness (IMT) was analyzed on the far wall of the common carotid arteries. A segment of 10 mm in length of the common carotid artery was analyzed on serial examinations using an automated edge detection software (Carotid Analyzer, Medical Imaging Applications, Coralville, Iowa). Among the 411 participants in the dal-PLAQUE-2 trial who consented to the genetic study, 386 had imaging measures at baseline, 6 months and 12 months (194 and 192 in the dalcetrapib and placebo arms respectively). DNA was extracted from whole blood. The research protocols were approved by the relevant institutional review boards or ethics committees and all human participants gave written informed consent.
All acquired carotid ultrasound recordings were analyzed at the core laboratory of the Montreal Heart Institute by experienced technicians supervised by a physician. Images were required to meet quality and inclusion and exclusion criteria for eligibility prior to random assignment to study treatment. The methods for carotid intima-media thickness analysis included side-by-side viewing of baseline and follow-up studies.
Carotid arterial wall segments were assessed in a longitudinal view, perpendicular to the ultrasound beam, with a horizontal display of the arterial image in order to view the interfaces between blood and vascular structures on the longest possible segment. The localization of the end of the common carotid artery was used as the landmark in repositioning and analyzing comparative length of segments in baseline and follow-up studies. Intima-media thickness was analyzed on the far wall of the right and left common carotid arteries, to reduce variability of measurements. The average of the mean intima-media thickness values of the right and left common carotid arteries was used. A matched segment of 10 mm in length of the common carotid artery was analyzed on serial examinations (baseline, 6 months and 12 months), starting 5 mm proximal to the carotid bifurcation. The edge detection software Carotid Analyzer (Medical Imaging Applications LLC, Coralville, Iowa) was used to analyze intima-media thickness using the automated option. Two sets of carotid artery borders were identified: First, the media-adventitia borders were determined and verified by the reader. When required, their locations were semi-automatically modified to the correct location. When these borders were approved, the lumen-intima boundaries were automatically detected using the media-adventitia borders for guidance. Frames from looped sequences of intima-media thickness were selected for reading, and poor quality outlier frames were removed from the analysis when required.
For the dal-Plaque-2 population, mixed regression models for repeated measures analysis were tested in SAS software. The dal-Plaque-2 tested endpoint was the mean of IMT measures of common carotid arteries at the 6-month and the 12-month visits, using the baseline measure as covariate. […]

Q: CCC(CC)CC1(C(=O)Nc2ccccc2SC(=O)C(C)C)CCCCC1 [dalcetrapib, thioisobutyric acid S-(2-{[1-(2-ethyl-butyl)-cyclohexanecarbonyl]-amino}-phenyl) ester] was tested. Which “Change from baseline in carotid intima-media thickness, Mean” value (“Change from baseline” below) (rs1967309, heterozygotes, M12) did it give?
A: −0.001 mm

Q: And the “Change from baseline” value (rs1967309, homozygotes for major allele, M06)?
A: 0.006 mm

Q: What about the “Change from baseline” value (rs1967309, homozygotes for major allele, M12) of the same compound?
A: 0.005 mm

Q: And the “Change from baseline” value (rs1967309, homozygotes for minor allele, M12)?
A: −0.021 mm

Q: And the “change in IMT after 12 months of treatment” value (“change in IMT after 12 months” below) (rs1967309 AA homozygotes)?
A: −0.021±0.083 mm

Q: And the “change in IMT after 12 months” value (rs1967309 GG homozygotes)?
A: +0.005±0.042 mm

Q: What about the “change in IMT after 12 months” value (rs1967309 heterozygotes) of the same compound?
A: −0.001±0.048 mm

Q: And the “Change from baseline” value (rs2238448, heterozygotes, M06)?
A: −0.003 mm

Q: And the “Change from baseline” value (rs2238448, heterozygotes, M12)?
A: 0.000 mm

Q: What about the “Change from baseline” value (rs2238448, homozygotes for major allele, M06) of the same compound?
A: 0.011 mm

Q: And the “Change from baseline” value (rs2238448, homozygotes for major allele, M12)?
A: 0.009 mm

Q: And the “Change from baseline” value (rs2238448, homozygotes for minor allele, M06)?
A: −0.010 mm

Q: What about the “Change from baseline” value (rs2238448, homozygotes for minor allele, M12) of the same compound?
A: −0.027 mm

Q: And the “change in IMT after 12 months” value (rs2238448 CC (common allele homozygotes))?
A: +0.009±0.038 mm

Q: And the “change in IMT after 12 months” value (rs2238448 TT (minor allele homozygotes))?
A: −0.027±0.079 mm

Q: What about the “change in IMT after 12 months” value (rs2238448 heterozygotes) of the same compound?
A: 0.000±0.048 mm

Q: And the “Change from baseline” value (rs2239310, heterozygotes, M06)?
A: −0.004 mm

Q: What about the “Change from baseline” value (rs2239310, heterozygotes, M12) of the same compound?
A: −0.003 mm

Q: And the “Change from baseline” value (rs2239310, homozygotes for major allele, M06)?
A: 0.004 mm

Q: What about the “Change from baseline” value (rs2239310, homozygotes for major allele, M12) of the same compound?
A: 0.001 mm

Q: And the “Change from baseline” value (rs2239310, homozygotes for minor allele, M06)?
A: −0.001 mm

Q: What about the “Change from baseline” value (rs2239310, homozygotes for minor allele, M12) of the same compound?
A: −0.002 mm

Q: What about the “Change from baseline” value (rs2283497, heterozygotes, M06) of the same compound?
A: −0.001 mm

Q: And the “Change from baseline” value (rs2283497, heterozygotes, M12)?
A: 0.005 mm

Q: What about the “Change from baseline” value (rs2283497, homozygotes for minor allele, M06) of the same compound?
A: −0.005 mm

Q: What about the “Change from baseline” value (rs2283497, homozygotes for minor allele, M12) of the same compound?
A: −0.006 mm

Q: And the “Change from baseline” value (rs2531967, heterozygotes, M06)?
A: −0.008 mm

Q: And the “Change from baseline” value (rs2531967, heterozygotes, M12)?
A: −0.006 mm

Q: And the “Change from baseline” value (rs2531967, homozygotes for minor allele, M06)?
A: −0.007 mm

Q: And the “Change from baseline” value (rs2531967, homozygotes for minor allele, M12)?
A: −0.031 mm

Q: And the “Change from baseline” value (rs2531971, heterozygotes, M06)?
A: −0.002 mm

Q: And the “Change from baseline” value (rs2531971, heterozygotes, M12)?
A: 0.002 mm

Q: What about the “Change from baseline” value (rs2531971, homozygotes for major allele, M06) of the same compound?
A: 0.008 mm

Q: And the “Change from baseline” value (rs2531971, homozygotes for major allele, M12)?
A: −0.002 mm

Q: What about the “Change from baseline” value (rs2531971, homozygotes for minor allele, M06) of the same compound?
A: −0.010 mm

Q: What about the “Change from baseline” value (rs2531971, homozygotes for minor allele, M12) of the same compound?
A: −0.016 mm

Q: And the “Change from baseline” value (rs3730119, heterozygotes, M06)?
A: −0.002 mm

Q: And the “Change from baseline” value (rs3730119, heterozygotes, M12)?
A: 0.004 mm

Q: And the “Change from baseline” value (rs3730119, homozygotes for minor allele, M06)?
A: 0.006 mm

Q: What about the “Change from baseline” value (rs3730119, homozygotes for minor allele, M12) of the same compound?
A: −0.028 mm

Q: What about the “Change from baseline” value (rs4786454, heterozygotes, M06) of the same compound?
A: −0.007 mm

Q: And the “Change from baseline” value (rs4786454, heterozygotes, M12)?
A: −0.005 mm

Q: And the “Change from baseline” value (rs4786454, homozygotes for minor allele, M06)?
A: −0.020 mm

Q: What about the “Change from baseline” value (rs4786454, homozygotes for minor allele, M12) of the same compound?
A: −0.049 mm

Q: And the “Change from baseline” value (rs8049452, heterozygotes, M06)?
A: −0.002 mm

Q: What about the “Change from baseline” value (rs8049452, heterozygotes, M12) of the same compound?
A: 0.003 mm

Q: And the “Change from baseline” value (rs8049452, homozygotes for major allele, M06)?
A: −0.008 mm

Q: And the “Change from baseline” value (rs8049452, homozygotes for major allele, M12)?
A: −0.013 mm

Q: And the “Change from baseline” value (rs8049452, homozygotes for minor allele, M06)?
A: 0.020 mm

Q: What about the “Change from baseline” value (rs8049452, homozygotes for minor allele, M12) of the same compound?
A: 0.006 mm

Q: And the “Change from baseline” value (rs8061182, heterozygotes, M06)?
A: 0.000 mm

Q: What about the “Change from baseline” value (rs8061182, heterozygotes, M12) of the same compound?
A: 0.007 mm

Q: What about the “Change from baseline” value (rs8061182, homozygotes for minor allele, M06) of the same compound?
A: 0.016 mm
